Assay results: patent US20130039956A1, “USE OF NITROCARBOXYLIC ACIDS FOR THE TREATMENT, DIAGNOSIS AND PROPHYLAXIS OF AGGRESSIVE HEALING PATTERNS” (priority 2010, published 2013)

Columns and labels:
Format in all cases: cell-based
fibroblasts = assay: Mechanical alteration of fibroblasts (cyclic stretching of coated polypropylene meshes); conditions: cyclic stretching, day 7, day 21, 8 weeks, compared with native FA; further: key: 0: not superior to native FA (control); +: Superior to native FA; ++: superior to both; +++: outstanding effect
Excerpt: In order to simulate the effects of chronic shear forces on a healing wound, an in vitro model was established. A flat balloon was placed on the bottom of a Petri dish. A silicone sheet was placed above and sealed with the side of the Petri dish. Then a 3 mm agar layer was casted on top of the sheet. Commercially available polypropylene meshes for hernia repair (microporous mesh, a low-weight and macroporous mesh with absorbable polyglactin filaments, and a heavy-weight and microporous mesh) were placed on the agar plates and fixed at 4 points at the side of the Petri dish. This setting enabled stretching of the meshes by filling the balloons with air, which was performed at 10-second intervals using an automated pumping device. The model can be used to evaluate the effect of three-dimensional (3D) shear forces on cell growth during cell cultivation. Preincubated suspensions of fibroblasts (1.5×10(5) cells) in a culture medium (10% FCS) were added to the culture dishes and allowed to grow for 48 hours. Cyclic stretching was started at day 3. Histological analysis was performed from the central portions of the meshes at day 7, at day 21, and after 8 weeks. The scaffolds were detached from the culture plate and carefully rinsed. Then, they were cut into pieces, casted, and further processed for standard histology and immunohistology. Care was taken to achieve a cutting plane that was vertical to the surface plane of the meshes. Histological analysis evaluated the cellularity, the content of extra cellular matrix (ECM), and the magnitude of protein synthesis. Meshes were dip-coated with native and nitro fatty acids or left blank in the same manner as in example 1. The uncoated meshes served as controls.

[1] = test system: canine cutaneous mastocytoma cells; assay: Toxin response of mast cells (mastoparan, Streptolysin O, UVB); conditions: preincubation 10 and 100 μmol, compared with native FA
Description: In order to determine membrane stabilizing and anticytotoxic properties of nitrated fatty acids, an in vitro model utilizing canine cutaneous mastocytoma cells was chosen. Cells were cultured according to standard procedure. Cytotoxic effects were quantified by measuring not only by Ca^2+ influx, histamine, and TNFα release, but also by using the MTT assay. Cell suspensions were incubated with 0.9% saline, one of the nitrocarboxylic acids as listed in table 1 or the respective native fatty acid as to achieve a final concentration of 10 and 100 μmol which was given to the medium 15 min before toxin application.
Mastoparan suspended in a buffer solution was added to the preincubated mast cell suspensions to achieve a final concentration of 10 or 30 μmol, respectively. Measurements were performed after 1 hour incubation time. […] Preincubation of mast cells with nitrated fatty acids reduced the effects on Ca^2+ influx, histamine release, and apoptosis induction in a dose-dependent manner, with an almost complete absence of apoptosis at a concentration of 100 μmol.
Streptolysin O was given to preincubated suspensions to achieve a final concentration of 500 ng/ml. Measurements were performed after 2 hours. Releases of histamine and TNFα in the suspensions were measured. After saline preincubation, a significant release of histamine and TNFα was observed.
Cell plates were exposed to a single dose (250 mJ/cm2) of UVB using a lamp (Saalmann, Herford, Germany) emitting most of its energy within the UVB range (295 to 315 nm). Tryptase levels in the supernatants were determined after 30 minutes, and concentrations of TNFα after 60 minutes. After preincubation with saline, there was a marked increase of tryptase. Preincubation with native fatty acids led to a dose-dependent reduction of tryptase release, which was significant at the lower irradiation dose but not after exposure to a high irradiation dose. […] For all nitrated fatty acids that were used the results were mostly inside the same range. Relative differences can be represented as follows: […]

[2] = test system: Human peripheral blood mononuclear cells (PBMCs); assay: Adhesion of serum proteins and monocyte activation induced by coated silicone; conditions: dip-coated silicone, PBMCs 3 days; compared with native FA; further: key: 0: not superior to native FA (control); +: Superior to native FA; ++: superior to both; +++: outstanding effect
Description: In order to determine the effect of coating implant materials with nitro fatty acids to reduce adsorption of adhesion molecules and monocyte activation, sterile silicone sheets were out in small pieces and coated with respective nirocarboxylic acid and the corresponding native fatty acids by dip coating. Uncoated silicone pieces served as controls. For each fatty acid two sets of silicone pieces were bathed in freshly drawn human serum for 1 hour at 37° C., and another two sets were bathed in saline solutions. One set of both coated and uncoated pieces was analyzed immediately for adhesion proteins and the other set was placed in 96-well plates after rinsing the silicone pieces. Human peripheral blood mononuclear cells (PBMCs), isolated from three healthy subjects, were added to each well. Wells were incubated for 3 days under standard conditions. Culture supernatants were assayed for IL-1beta, IL-6, IL-8, and chemoattractant protein 1 (MCP-1) levels at the start and end of experiments.
Before analyzing the silicone pieces for protein adsorption, they were bathed in saline for 5 minutes. Thereafter, one side was rinsed with saline as performed for both sides in the set used for culturing. There was marked adsorption of fibrinogen and […] C5b-9 on the uncoated silicone. […] No protein was found on the surface of the nitro fatty acid-coated sample that was rinsed, thus, indicating the weak adherence of serum proteins.

Cardiomyocytes = assay: TGF-β1-inducible formation of extracellular matrix in cardiomyocytes under shear stress; conditions: 10-100 μmol, shear stress up to 100 dyn/cm^2; compared with native FA; further: key: 0: not superior to native FA (control); +: Superior to native FA; ++: superior to both; +++: outstanding effect
Description: Characterizing features of the fibrous remodelling in the heart are accentuated expression and deposition of extracellular matrix proteins (ECM). This has been attributed to increased mechanical forces via autocrine release of transforming growth factor-beta (TGF-beta). […] An established cell culture model was used to investigate the effect of shear stress on cardiomyocytes. Cardiomyocytes were cultured and transferred to a matrigel substrate. Plates with confluenced cells were placed into a shear force injury device (SFID). The SFID design is based on a cone-and-plate construction which is a well-defined rheological model in which a homogenously distributed laminar flow over the surface of the cells is generated by a rotating cone. The conical surface is positioned above a stationary flat plate and the fluid medium between these two surfaces is set in motion by rotating the cone to create a uniform level of fluid shear stress throughout the entire surface of the cells cultured on the coverslips.
A peak shear stress of 100 dyn/cm^2 could be applied without significant cell detachment enabling a maximum injury severity of 46%. Cells were exposed to FCS 1% without or with nitro-fatty acid, and the corresponding native fatty acid in a dosage range between 10 μmol and 100 μmol, 10 seconds before shear force application. Shear force peaks up to 100 dyn/cm^2 with a duration of 30 msec each with a repetition frequency of 60/minute were applied for 5, 10, 30 and 60 minutes. Thereafter the cell plates were washed and placed in FCS 1% for 24 hrs. The supernatant of the shear force investigation as well as that of the following culture phase was analysed. It could be shown that TGF-beta and ECM proteins (collagen I, fibronectin, laminin, elastin) increased after treatment in the control groups.

Molecule	Relative effect on fibroblasts under mechanical alteration (fibroblasts)	Relative differences: effect on toxin response of mast cells [1]	Relative effect on serum protein adhesion and monocyte activation [2]	Relative efficacy to suppress TGF-beta and ECM proteins in cardiomyocytes (Cardiomyocytes)
5-nitro-eicosatrienoic acid [compound 4]	+	+	+	+
CCCCCCCCCCC/C=C(/CCCCC(=O)O)[N+](=O)[O-] [compound 21, 6-nitro-cis-6-octadecenoic acid]	+		0	++
CCCCCC=CCC=C(CC=CCC=CCCCC(=O)O)[N+](=O)[O-] [compound 14, 11-nitro-5,8,11,14-eicosatrienoic acid]	0		+	+
CCCCC/C=C\C/C(=C\CCCCCCCC(=O)O)[N+](=O)[O-] [compound 2, 10-nitro-cis-linoleic acid]	+++	++	++	++
CCCCCC/C=C(\CCCCCCCC(=O)O)[N+](=O)[O-] [compound 16, 9-nitro-9-trans-hexadecenoic acid]	++	++	0	
CCCCCCCC/C(=C\CCCCCCCC(=O)O)[N+](=O)[O-] [compound 12, 10-nitro-trans-oleic acid]	+	++	0	
CC/C=C\C/C=C\C/C(=C/C/C=C\C/C=C\CCCCCC(=O)O)[N+](=O)[O-] [compound 7, 14-nitro-all-cis-7,10,13,16,19-docosapentaenoic acid]	+	++	0	+
CCCCCCCC/C=C(/CCCCCCCCCCCC(=O)O)[N+](=O)[O-] [compound 17, 13-nitro-cis-13-docosenoic acid]	+	+	+	
CCC=CCC=C(CC=CCC=CCC=CCC=C(CCC(=O)O)[N+](=O)[O-])[N+](=O)[O-] [compound 19, 4,16-nitro-docosahexaenoic acid]	++	0	+	
CCCCCCCC/C=C(\CCCCCCCC(=O)O)[N+](=O)[O-] [compound 9, 9-nitro-trans-oleic acid]	+	++	+	+
CCCCCCCC/C=C(/CCCCCCCC(=O)O)[N+](=O)[O-] [compound 1, 9-nitro cis-oleic acid]	+++	+++	+++	++
CCCCCCCC/C(=C/CCCCCCCC(=O)O)[N+](=O)[O-] [compound 3, 10-nitro-cis-oleic acid]	++	+++	++	++
CCCCCC=CCC=C(CC=CC/C=C\CCCC(=O)O)[N+](=O)[O-] [compound 22, 11-nitro-cis-5,8,11,14-eicosatetraenoic acid]	++	++	+	++
CCCCCCCC/C=C(/CCCCCCCCCCCCCC(=O)O)[N+](=O)[O-] [compound 8, 15-nitro-cis-15-tetracosenoic acid]	+	+	+	+
CCCCCC/C=C(/CCCCCCCC(=O)O)[N+](=O)[O-] [compound 13]	+		+	
9,10-nitro-trans-oleic acid [compound 15]	+	++	+	+
CCCCC=C(C=CC=CCCCCCCCC(=O)O)[N+](=O)[O-] [compound 11, 13-nitro-octadeca-9,11,13-trienoic acid]	+	+	+	+
CC/C=C\C/C=C\C/C=C(/CCCCCCCC(=O)O)[N+](=O)[O-] [compound 6, 9-nitro-all-cis-9-12,15-octadecatrienoic acid]	++	++	+	+++
CCCCC/C=C(/C/C=C\C/C=C(/C/C=C\CCCC(=O)O)[N+](=O)[O-])[N+](=O)[O-] [compound 18, 8,14-nitro-cis-5,8,11,14-eicosatetraenoic acid]	+	0	++	
